Key:
[1] = molecular target: human Farnesoid X receptor ligand-binding domain/Gal4 DNA binding domain chimera (Homo sapiens (Human), UniProt Q96RI1); assay: Cell-based assay of FXR activation (FXR-UAS-bla HEK 293T beta-lactamase reporter); details: cellular FXR beta-lactamase reporter assay; for Emax: HEK-293T, extent of activation relative to GW4064, read-out: % Efficacy; for EC50: FXR-UAS-bla HEK 293T cells, 16 h, pEC50 = -log EC50
Procedure, shortened: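 Readout is cleavage of the CCF4 FRET substrate (409 nm excitation, blue 447 nm signal) by beta-lactamase, expressed under UAS control after a Gal4–human FXR LBD chimera is activated in HEK 293T cells. Compounds were added as 3-fold dilutions for 16 h at 37 °C in 2% charcoal-stripped FBS medium. Curves were fit to a 3-parameter logistic equation to give pEC50, with % activation relative to GW4064.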

[2] = molecular target: ligand binding domain of human FXR (Homo sapiens (Human), UniProt Q96RI1); assay: FXR ligand binding assay (LanthaScreen TR-FRET, SRC2-2 peptide recruitment); details: for pEC50: -log EC50, concentration required to produce 50% activation; for Emax: extent of activation relative to GW4064, read-out: % Efficacy
Sequence of ligand binding domain of human FXR (Q96RI1 262-486): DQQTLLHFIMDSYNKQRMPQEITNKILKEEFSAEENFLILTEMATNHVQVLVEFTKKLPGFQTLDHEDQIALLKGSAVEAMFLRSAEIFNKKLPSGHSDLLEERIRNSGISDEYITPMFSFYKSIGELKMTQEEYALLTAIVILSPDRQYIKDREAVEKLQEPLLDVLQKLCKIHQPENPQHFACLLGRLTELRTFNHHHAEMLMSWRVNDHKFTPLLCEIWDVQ

Sequence of human Farnesoid X receptor ligand-binding domain/Gal4 DNA binding domain chimera (Q96RI1 262-486, change not shown): as the sequence (Q96RI1 262-486) above
Sequence of human Farnesoid X receptor ligand-binding domain/Gal4 DNA binding domain chimera (P04386 1-147 partner): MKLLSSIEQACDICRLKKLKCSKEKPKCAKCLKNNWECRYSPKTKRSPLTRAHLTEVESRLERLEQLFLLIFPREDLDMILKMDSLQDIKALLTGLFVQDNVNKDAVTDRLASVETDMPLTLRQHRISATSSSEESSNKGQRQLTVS

| SMILES | Emax [1] [%] | EC50 [1] [nM] | pEC50 [2] | Emax [2] [%] |
| --- | --- | --- | --- | --- |
| O=C(O[C@@H]1C[C@@H]2C[C@H]1CN2c1ccc(-c2nn[nH]n2)cc1F)c1c(-c2c(Cl)cccc2Cl)noc1C1CC1 [Compound I-51, (1S,4S,5R)-2-[2-fluoro-4-(2H-1,2,3,4-tetrazol-5-yl)phenyl]-2-azabicyclo[2.2.1]heptan-5-yl 5-cyclopropyl-3-(2,6-dichlorophenyl)-1,2-oxazole-4-carboxylate] | 104 | 20 | 6.7 | 269 |
| O=C(O)c1cc(C2CCCC2)c2nc(N3C[C@@H]4C[C@H]3C[C@H]4OCc3c(C4CCC5(CC4)CC5)noc3C3CC3)sc2c1 [Compound I-283, 4-cyclopentyl-2-((1S,4S,5R)-5-((5-cyclopropyl-3-(spiro[2.5]octan-6-yl)isoxazol-4-yl)methoxy)-2-azabicyclo[2.2.1]heptan-2-yl)benzo[d]thiazole-6-carboxylic acid] | 104 | 25.1 | 7 | 114 |
| O=C(O)c1ccc(N2C[C@@H]3C[C@H]2C[C@H]3OCc2c(-c3ccccc3C(F)(F)F)noc2C2CC2)cc1 [Compound I-120, 4-[(1S,4S,5R)-5-({5-cyclopropyl-3-[2-(trifluoromethyl)phenyl]-1,2-oxazol-4-yl}methoxy)-2-azabicyclo[2.2.1]heptan-2-yl]benzoic Acid] | 112 | 2 | 8 | 188 |
| O=C(O)c1cc(F)c2nc(N3C[C@@H]4C[C@H]3C[C@H]4OC(=O)c3c(-c4c(Cl)cccc4Cl)noc3C3CC3)sc2c1 [Compound I-1, 2-[(1S,4S,5R)-5-[5-cyclopropyl-3-(2,6-dichlorophenyl)-1,2-oxazole-4-carbonyloxy]-2-azabicyclo[2.2.1]heptan-2-yl]-4-fluoro-1,3-benzothiazole-6-carboxylic Acid] | 126 | 10 | 7.4 | 148 |
| N#Cc1cc(F)c(N2C[C@@H]3C[C@H]2C[C@H]3OCc2c(-c3c(Cl)cccc3Cl)noc2C2CC2)c(F)c1 [Compound I-54a, 4-[(1S,4S,5R)-5-[[5-cyclopropyl-3-(2,6-dichlorophenyl)-1,2-oxazol-4-yl]methoxy]-2-azabicyclo[2.2.1]heptan-2-yl]-3,5-difluorobenzonitrile] | 112 | 31.6 | 7.0 | 162 |
| CCc1cc(C(=O)O)cc2sc(N3C[C@@H]4C[C@H]3C[C@H]4OCc3c(-c4c(Cl)cccc4Cl)noc3C3CC3)nc12 [Compound I-246, 2-[(1S,4S,5R)-5-{[5-cyclopropyl-3-(2,6-dichlorophenyl)-1,2-oxazol-4-yl]methoxy}-2-azabicyclo[2.2.1]heptan-2-yl]-4-ethyl-1,3-benzothiazole-6-carboxylic Acid] | 113 | 0.251 | 8.5 | 136 |
| O=C(NS(=O)(=O)C1CC1)c1ccc(N2C[C@@H]3C[C@H]2C[C@H]3OC(=O)c2c(-c3c(Cl)cccc3Cl)noc2C2CC2)cc1 [Compound I-47, (1S,4S,5R)-2-{4-[(cyclopropanesulfonyl)carbamoyl]phenyl}-2-azabicyclo[2.2.1]heptan-5-yl 5-cyclopropyl-3-(2,6-dichlorophenyl)-1,2-oxazole-4-carboxylate] | 106 | 15.8 | 7.8 | 174 |
| O=C(O)c1cc(F)c2nc(N3C[C@@H]4C[C@H]3C[C@@H]4OC(=O)c3c(-c4c(Cl)cccc4Cl)noc3C3CC3)sc2c1 [Compound I-34, 2-[(1S,4S,5S)-5-[5-cyclopropyl-3-(2,6-dichlorophenyl)-1,2-oxazole-4-carbonyloxy]-2-azabicyclo[2.2.1]heptan-2-yl]-4-fluoro-1,3-benzothiazole-6-carboxylic Acid] | 15 | 398 | >4.5 |  |
| O=C(NS(=O)(=O)CCCCCCCCCCNC(=O)[C@H](O)[C@@H](O)[C@H](O)[C@H](O)CO)c1ccc(N2C[C@@H]3C[C@H]2C[C@H]3OCc2c(-c3c(Cl)cccc3Cl)noc2C2CC2)c(F)c1 [Compound I-223, (2R,3S,4R,5R)—N-{10-[({4-[(1S,4S,5R)-5-{[5-cyclopropyl-3-(2,6-dichlorophenyl)-1,2-oxazol-4-yl]methoxy}-2-azabicyclo[2.2.1]heptan-2-yl]-3-fluorophenyl}formamido)sulfonyl]decyl}-2,3,4,5,6-pentahydroxyhexanamide] |  | < 31.6 | 8.6 | 144 |
| Cc1cc(C(=O)O)cc2sc(N3C[C@@H]4C[C@H]3C[C@H]4OCc3c(-c4c(Cl)cccc4Cl)noc3C3CC3)nc12 [Compound I-13, 2-[(1S,4S,5R)-5-{[5-cyclopropyl-3-(2,6-dichlorophenyl)-1,2-oxazol-4-yl]methoxy}-2-azabicyclo[2.2.1]heptan-2-yl]-4-methyl-1,3-benzothiazole-6-carboxylic acid] | 116 | 0.158 | 8.6 | 174 |
| Cc1cccc(Cl)c1-c1noc(C2CC2)c1CO[C@@H]1C[C@@H]2C[C@H]1CN2c1ccc(C(=O)O)cc1F [Compound I-113, 4-[(1S,4S,5R)-5-[[3-(2-chloro-6-methylphenyl)-5-cyclopropyl-1,2-oxazol-4-yl]methoxy]-2-azabicyclo[2.2.1]heptan-2-yl]-3-fluorobenzoic acid] | 101 | 0.794 | 8.8 | 126 |
| CCCS(=O)(=O)NC(=O)c1ccc(N2C[C@@H]3C[C@H]2C[C@H]3OCc2c(-c3c(Cl)cccc3Cl)noc2C2CC2)c(F)c1 [Compound I-61, 4-[(1S,4S,5R)-5-{[5-cyclopropyl-3-(2,6-dichlorophenyl)-1,2-oxazol-4-yl]methoxy}-2-azabicyclo[2.2.1]heptan-2-yl]-3-fluoro-N-(propane-1-sulfonyl)benzamide] | 106 | 0.0631 | 8.7 | 174 |
| NS(=O)(=O)[C@@H]1CCC[C@H]1OC(=O)c1ccc(N2C(=O)[C@@H]3C[C@H]2C[C@H]3OCc2c(-c3c(Cl)cccc3Cl)noc2C2CC2)cc1 [Compound I-345, (1R,2R)-2-sulfamoylcyclopentyl 4-[(1S,4R,5R)-5-{[5-cyclopropyl-3-(2,6-dichlorophenyl)-1,2-oxazol-4-yl]methoxy}-3-oxo-2-azabicyclo[2.2.1]heptan-2-yl]benzoate] | 121 | 3.98 | 8.6 | 203 |
| O=C(NS(=O)(=O)C1CCOCC1)c1ccc(N2C(=O)[C@@H]3C[C@H]2C[C@H]3OCc2c(-c3c(Cl)cccc3Cl)noc2C2CC2)cc1F [Compound I-332, 4-((1S,4R,5R)-5-((5-cyclopropyl-3-(2,6-dichlorophenyl)isoxazol-4-yl)methoxy)-3-oxo-2-azabicyclo[2.2.1]heptan-2-yl)-2-fluoro-N-((tetrahydro-2H-pyran-4-yl)sulfonyl)benzamide] | 100 | 0.316 | 8.8 | 150 |
| O=C(NS(=O)(=O)[C@@H]1CCC[C@H]1O)c1ccc(N2C(=O)[C@@H]3C[C@H]2C[C@H]3OCc2c(-c3c(Cl)cccc3Cl)noc2C2CC2)cc1 [Compound I-344, 4-[(1S,4R,5R)-5-{[5-cyclopropyl-3-(2,6-dichlorophenyl)-1,2-oxazol-4-yl]methoxy}-3-oxo-2-azabicyclo[2.2.1]heptan-2-yl]-N-{[(1R,2R)-2-hydroxycyclopentyl]sulfonyl}benzamide] | 132 | 1.58 | 8.4 | 203 |

From patent US10793568B2, “Hormone receptor modulators for treating metabolic conditions and disorders” (ARDELYX, INC., priority 2016, dated 2020)
